Laboratory results taken from patent US5821118A, “Genes for the subunits of human farnesyl-protein transferase” (Merck & Co., Inc., priority 1995, dated 1998).
Where two headings read alike, the source gives them in different places.

Legend:
Bovine brain FTase = target: T1, Bovine brain FTase (Bos taurus, UniProt P29702+P49355); experiment: Assay of compounds for FPTase inhibitory activity, bovine brain FPTase; format: biochemical
T1 construct: an assay employing bovine brain FPTase; from tissue; host or cells: bovine brain
Procedure: The purified, recombinantly expressed, mammalian FPTase is employed in an assay to determine the inhibitory activity against FPTase mediated farnesylation of Ras by various pharmaceutical compounds. […] The purified mammalian FPTase is then added to the assay mixture and the assay mixture is incubated for a period of time such as 10-30 minutes at 30° C. The assay mixture is then quenched and the Ras protein is separated from free FPP by techniques well known in the art. […] This value may be compared to the relative value of the amount of Ras farnesylated in the absence of the pharmaceutical agent and to the relative value of the amount of Ras farnesylated in the presence of other pharmaceutical agents.
[^3 H]Farnesyl diphosphate (FPP) (20 Ci/mmol) was purchased from New England Nuclear. In general, inhibitory activity assays were carried out at 30° C. A typical assay reaction contained (in a final volume of 50 μL): [^3 H]farnesyl diphosphate, Ras protein (3.5 μM), 50 mM HEPES, pH 7.5, 5 mM MgCl2, 1 mM dithiothreitol, and the compound to be assayed. After thermally preequilibrating the assay mixture, the reaction was initiated by the addition of the purified mammalian FPTase and the reaction was stopped at timed intervals by the addition of 1M HCl in ethanol (1 mL). The quenched reactions were allowed to stand for 15 minutes. After adding 2 mL of 100% ethanol, the mixtures were vacuum filtered through Whatman GF/C filters. Filters were washed four times with 2 mL aliquots of 100% ethanol, mixed with scintillation fluid (10 mL) and then counted in a Beckmann LS3801 scintillation counter.

human FPTase = target: T2, human FPTase (Homo sapiens, UniProt P49354+P49356); experiment: Assay of compounds for FPTase inhibitory activity, once purified human FPTase; format: biochemical
T2 construct: codons for Glutamic acid-Glutamic acid-Phenylalanine-stop were placed after the last codon for the β subunit; made in house; host or cells: E. coli DH5a

[1] = Bovine brain FTase, Ras protein 3.5 μM, pH 7.5, 30° C, * = alternative substrates (CVIM, CVIL, FPP)
[2] = Human FTase, Ras protein 3.5 μM, pH 7.5, 30° C, * = alternative substrates (CVIM, CVIL, FPP)

Compound | IC50 (Bovine brain FTase) | IC50 (human FPTase) | IC50 (Bovine brain FTase; [1]) | IC50 (human FPTase; [2])
CC(C)=CCC/C(C)=C/CC/C(C)=C/C(O)P(=O)(O)O (racemic) [Compound A, (R,S)[1hydroxy-(E,E)-3,7,11-trimethyl-2,6,10-dodeca-trienyl]phosphonic acid] | 20 nM | 18 nM |  | 
CC(C)=CCC/C(C)=C/CC/C(C)=C/CO[P@@](=O)(O)OP(=O)(O)O (stereo in doubt) [FPP, farnesyl diphosphate] | 200 nM | 250 nM |  | 
CC(C)=CCC/C(C)=C/CC/C(C)=C/CC/C(C)=C/COP(=O)(O)OP(=O)(O)O [GGPP, geranylgeranyl-diphosphate] | 200 nM | 240 nM |  | 
cysteinylisolleucinyl-phenylalaninyl-methionine [CIFM] |  |  | 10 nM | 17 nM
cysteinylvalinyl-isolleucinyl-leucine (CVIL) |  |  | 20000 nM | 6200 nM
